Here are results for 36 compounds from US12247015B2, “3-amino-4H-benzo[e][1,2,4]thiadiazine 1,1-dioxide derivatives as inhibitors of MRGX2” (Solent Therapeutics, LLC, priority 2019, dated 2025).

Chain of hMRGX2 (CHO-K1 cells overexpressing MRGX2) (Q96LB1 whole entry): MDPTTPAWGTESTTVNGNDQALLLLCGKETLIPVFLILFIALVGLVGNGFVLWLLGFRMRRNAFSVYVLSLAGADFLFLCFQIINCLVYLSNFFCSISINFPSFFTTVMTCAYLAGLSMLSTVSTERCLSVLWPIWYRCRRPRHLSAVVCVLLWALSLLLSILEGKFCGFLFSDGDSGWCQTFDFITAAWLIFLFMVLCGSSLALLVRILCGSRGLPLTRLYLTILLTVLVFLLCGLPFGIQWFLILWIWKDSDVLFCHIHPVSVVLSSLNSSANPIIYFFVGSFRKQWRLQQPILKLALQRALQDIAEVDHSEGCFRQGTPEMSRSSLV

This assay deals with hMRGX2 (CHO-K1 cells overexpressing MRGX2) (Homo sapiens (Human), UniProt Q96LB1). The assay is described as follows: In vitro inhibition (EC50) of intracellular calcium flux, FLIPR Tetra, substance P stimulation. It is filed as cell-based. The settings on record: stimulated with MRGX2 ligand substance P, FLIPR Calcium 5, read-out: hMRGX2 Cellular Potency (pEC50) (converted). The method, boiled down:
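CHO-K1 cells overexpressing human MRGX2, loaded with Calcium 5 dye for 30 min at 37 °C, then given compound (11-point, top 10 μM).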
(In general: Calcium flux is commonly read through the fluorescence of an indicator in the cells.)
For the compound `O=S1(=O)N=C(NCc2ccccc2)Nc2c(-c3cc(F)cc(F)c3)cccc21` [Example 88, 3-(benzylamino)-5-(3,5-difluorophenyl)-4H-benzo[e][1,2,4]thiadiazine 1,1-dioxide], the EC50 was 75.2 nM.

Consider `CNC1=NS(=O)(=O)c2cccc(-c3cc(Cl)ccc3C#N)c2N1` [Example 90, 4-chloro-2-(3-(methylamino)-1,1-dioxido-4H-benzo[e][1,2,4]thiadiazin-5-yl)benzonitrile], for which the EC50 was 973 nM.

With `CCc1ccccc1-c1cccc2c1NC(NC)=NS2(=O)=O` [Example 91, 5-(2-ethylphenyl)-3-(methylamino)-4H-benzo[e][1,2,4]thiadiazine 1,1-dioxide], the EC50 was 81.8 nM.

In the case of `CNC1=NS(=O)(=O)c2cccc(-c3ccc(C)cc3Cl)c2N1` [Example 92, 5-(2-chloro-4-methylphenyl)-3-(methylamino)-4H-benzo[e][1,2,4]thiadiazine 1,1-dioxide], the EC50 is 92.7 nM.

For the compound `CNC1=NS(=O)(=O)c2cccc(-c3cc(F)ccc3Cl)c2N1` [Example 93, 5-(2-chloro-5-fluorophenyl)-3-(methylamino)-4H-benzo[e][1,2,4]thiadiazine 1,1-dioxide], the EC50 is 181 nM.

For the compound `CNC1=NS(=O)(=O)c2cccc(-c3ccc(F)cc3Cl)c2N1` [Example 94, 5-(2-chloro-4-fluorophenyl)-3-(methylamino)-4H-benzo[e][1,2,4]thiadiazine 1,1-dioxide], the EC50 is 235 nM.

As to `CNC1=NS(=O)(=O)c2cccc(-c3cccc(F)c3C)c2N1` [Example 95, 5-(3-fluoro-2-methylphenyl)-3-(methylamino)-4H-benzo[e][1,2,4]thiadiazine 1,1-dioxide], the EC50 is 350 nM.

Take `CNC1=NS(=O)(=O)c2cccc(-c3cc(F)cc(F)c3F)c2N1` [Example 96, 3-(methylamino)-5-(2,3,5-trifluorophenyl)-4H-benzo[e][1,2,4]thiadiazine 1,1-dioxide]: the EC50 is 598 nM.

For the compound `CNC1=NS(=O)(=O)c2cc(C)cc(-c3cccc(F)c3Cl)c2N1` [Example 97, 5-(2-chloro-3-fluorophenyl)-7-methyl-3-(methylamino)-4H-benzo[e][1,2,4]thiadiazine 1,1-dioxide], the EC50 was 589 nM.

For the compound `Cc1cc(-c2cccc3c2NC(Nc2ccc(C(C)C)cc2)=NS3(=O)=O)n[nH]1` [Example 98, 3-((4-isopropylphenyl)amino)-5-(5-methyl-1H-pyrazol-3-yl)-4H-benzo[e][1,2,4]thiadiazine 1,1-dioxide], the EC50 was 289 nM.

Consider `CC(C)c1ccc(NC2=NS(=O)(=O)c3cccc(-c4cnn(C(F)F)c4)c3N2)cc1` [Example 99, 5-(1-(difluoromethyl)-1H-pyrazol-4-yl)-3-((4-isopropylphenyl)amino)-4H-benzo[e][1,2,4]thiadiazine 1,1-dioxide], for which the EC50 was 760 nM.

For `CC(C)c1ccc(NC2=NS(=O)(=O)c3cccc(-n4cccn4)c3N2)cc1` [Example 100, 3-((4-isopropylphenyl)amino)-5-(1H-pyrazol-1-yl)-4H-benzo[e][1,2,4]thiadiazine 1,1-dioxide], the EC50 was 766 nM.

As for `CC(C)c1ccc(NC2=NS(=O)(=O)c3cccc(-c4cnn(C5COC5)c4)c3N2)cc1` [Example 101, 3-((4-isopropylphenyl)amino)-5-(1-(oxetan-3-yl)-1H-pyrazol-4-yl)-4H-benzo[e][1,2,4]thiadiazine 1,1-dioxide], the EC50 is 45.7 nM.

Consider `CC(C)c1ccc(NC2=NS(=O)(=O)c3cccc(-c4cnn(C5CC(F)(F)C5)c4)c3N2)cc1` [Example 104, 5-(1-(3,3-difluorocyclobutyl)-1H-pyrazol-4-yl)-3-((4-isopropylphenyl)amino)-4H-benzo[e][1,2,4]thiadiazine 1,1-dioxide], for which the EC50 is 89.1 nM.

On to `Cc1n[nH]cc1-c1cccc2c1NC(Nc1ccc(C(C)C)cc1)=NS2(=O)=O` [Example 106, 3-((4-isopropylphenyl)amino)-5-(3-methyl-1H-pyrazol-4-yl)-4H-benzo[e][1,2,4]thiadiazine 1,1-dioxide], for which the EC50 was 70.1 nM.

`CC(C)c1ccc(NC2=NS(=O)(=O)c3cccc(-c4ccn(C)n4)c3N2)cc1` [Example 108, 3-((4-isopropylphenyl)amino)-5-(1-methyl-1H-pyrazol-3-yl)-4H-benzo[e][1,2,4]thiadiazine 1,1-dioxide]: the EC50 was 592 nM.

Take `CC(C)c1ccc(NC2=NS(=O)(=O)c3cccc(C(C)C)c3N2)cc1` [Example 110, 5-isopropyl-3-((4-isopropylphenyl)amino)-4H-benzo[e][1,2,4]thiadiazine 1,1-dioxide]: the EC50 was 35.2 nM.

Take `CC(C)c1ccc(NC2=NS(=O)(=O)c3cccc(C4CCC4)c3N2)cc1` [Example 111, 5-cyclobutyl-3-((4-isopropylphenyl)amino)-4H-benzo[e][1,2,4]thiadiazine 1,1-dioxide]: the EC50 was 106 nM.

In the case of `CC(C)c1ccc(NC2=NS(=O)(=O)c3cccc(-c4ccccc4Cl)c3N2)cc1` [Example 112, 5-(2-chlorophenyl)-3-((4-isopropylphenyl)amino)-4H-benzo[e][1,2,4]thiadiazine 1,1-dioxide], the EC50 was 165 nM.

Turning to `Cc1cnccc1-c1cccc2c1NC(Nc1ccc(C(C)C)cc1)=NS2(=O)=O` [Example 113, 3-((4-isopropylphenyl)amino)-5-(3-methylpyridin-4-yl)-4H-benzo[e][1,2,4]thiadiazine 1,1-dioxide], the EC50 is 233 nM.

For `Cc1nn(C)cc1-c1cccc2c1NC(Nc1cccc(C(C)C)c1)=NS2(=O)=O` [Example 115, 5-(1,3-dimethyl-1H-pyrazol-4-yl)-3-((3-isopropylphenyl)amino)-4H-benzo[e][1,2,4]thiadiazine 1,1-dioxide], the EC50 was 54.8 nM.

With `CC(C)c1ccc(NC2=NS(=O)(=O)c3cccc(-c4ccccc4Cl)c3N2)cn1` [Example 117, 5-(2-chlorophenyl)-3-((6-isopropylpyridin-3-yl)amino)-4H-benzo[e][1,2,4]thiadiazine 1,1-dioxide], the EC50 was 197 nM.

Take `CC(C)c1ccc(NC2=NS(=O)(=O)c3cccc(C4CC4)c3N2)cn1` [Example 118, 5-cyclopropyl-3-((6-isopropylpyridin-3-yl)amino)-4H-benzo[e][1,2,4]thiadiazine 1,1-dioxide]: the EC50 is 378 nM.

For the compound `O=S1(=O)N=C(NCc2ncccc2F)Nc2c(C3CC3)cccc21` [Example 119, 5-cyclopropyl-3-(((3-fluoropyridin-2-yl)methyl)amino)-4H-benzo[e][1,2,4]thiadiazine 1,1-dioxide], the EC50 is 484 nM.

Take `COc1cccc(CNC2=NS(=O)(=O)c3cccc(C4CC4)c3N2)n1` [Example 120, 5-cyclopropyl-3-(((6-methoxypyridin-2-yl)methyl)amino)-4H-benzo[e][1,2,4]thiadiazine 1,1-dioxide]: the EC50 is 578 nM.

Take `O=S1(=O)N=C(Nc2ccccc2)Nc2c(C3CC3)cccc21` [Example 121, 5-cyclopropyl-3-(phenylamino)-4H-benzo[e][1,2,4]thiadiazine 1,1-dioxide]: the EC50 is 431 nM.

On to `COc1cccnc1CNC1=NS(=O)(=O)c2cccc(-c3cccc(F)c3Cl)c2N1` [Example 122, 5-(2-chloro-3-fluorophenyl)-3-(((3-methoxypyridin-2-yl)methyl)amino)-4H-benzo[e][1,2,4]thiadiazine 1,1-dioxide], for which the EC50 is 30.3 nM.

For the compound `O=S1(=O)N=C(NCC2CCCO2)Nc2c(-c3cccc(F)c3Cl)cccc21` (stereo not drawn) [Example 123, 5-(2-chloro-3-fluorophenyl)-3-(((tetrahydrofuran-2-yl)methyl)amino)-4H-benzo[e][1,2,4]thiadiazine 1,1-dioxide], the EC50 is 60.8 nM.

Take `COCCNC1=NS(=O)(=O)c2cccc(-c3ccccc3C(F)(F)F)c2N1` [Example 124, 3-((2-methoxyethyl)amino)-5-(2-(trifluoromethyl)phenyl)-4H-benzo[e][1,2,4]thiadiazine 1,1-dioxide]: the EC50 was 64.4 nM.

For the compound `N#Cc1c(F)cccc1-c1cccc2c1NC(NCc1nccs1)=NS2(=O)=O` [Example 126, 2-(1,1-dioxido-3-((thiazol-2-ylmethyl)amino)-4H-benzo[e][1,2,4]thiadiazin-5-yl)-6-fluorobenzonitrile], the EC50 is 70 nM.

`COC(C)CNC1=NS(=O)(=O)c2cccc(-c3cc(F)cc(F)c3F)c2N1` (stereo not drawn) [Example 127, 3-((2-methoxypropyl)amino)-5-(2,3,5-trifluorophenyl)-4H-benzo[e][1,2,4]thiadiazine 1,1-dioxide]: the EC50 was 87.1 nM.

For the compound `O=S1(=O)N=C(NCC2CCC2)Nc2c(-c3cc(F)cc(F)c3F)cccc21` [Example 130, 3-((cyclobutylmethyl)amino)-5-(2,3,5-trifluorophenyl)-4H-benzo[e][1,2,4]thiadiazine 1,1-dioxide], the EC50 is 87.9 nM.

Turning to `O=S1(=O)N=C(NCc2ccccn2)Nc2c(-c3cc(F)cc(F)c3F)cccc21` [Example 131, 3-((pyridin-2-ylmethyl)amino)-5-(2,3,5-trifluorophenyl)-4H-benzo[e][1,2,4]thiadiazine 1,1-dioxide], the EC50 is 88.5 nM.

Regarding `COCCNC1=NS(=O)(=O)c2cccc(-c3cccc(C(F)(F)F)c3Cl)c2N1` [Example 132, 5-(2-chloro-3-(trifluoromethyl)phenyl)-3-((2-methoxyethyl)amino)-4H-benzo[e][1,2,4]thiadiazine 1,1-dioxide], the EC50 was 281 nM.

As for `COCCNC1=NS(=O)(=O)c2cccc(-c3ccc(F)cc3Cl)c2N1` [Example 133, 5-(2-chloro-4-fluorophenyl)-3-((2-methoxyethyl)amino)-4H-benzo[e][1,2,4]thiadiazine 1,1-dioxide], the EC50 is 296 nM.

Regarding `COCCNC1=NS(=O)(=O)c2cccc(-c3cc(C(F)(F)F)ccc3Cl)c2N1` [Example 134, 5-(2-chloro-5-(trifluoromethyl)phenyl)-3-((2-methoxyethyl)amino)-4H-benzo[e][1,2,4]thiadiazine 1,1-dioxide], the EC50 was 723 nM.
